Source: PMC6374954, “Design, synthesis, and biological evaluation of novel derivatives of dithiodiglycolic acid prepared via oxidative coupling of thiols” (Journal of Enzyme Inhibition and Medicinal Chemistry, 2019)
Read-outs that look alike come from different tables or passages of the source.

What was measured:
[1] = target: TrxR; design: method as in PMID 27977313; conditions: read-out: Ki value toward the enzyme; cited from earlier work
[2] = system: TrxR1; conditions: cited from earlier work
[3] = target: T1, TrxR1 (Homo sapiens, UniProt Q16881); assay: TrxR inhibition assay (DTNB), SH-SY5Y cell lysate; assay type: biochemical; conditions: for IC50: neuroblastoma (SHSY5Y) lysate, mean ± SEM (n = 3)
T1 construct: For TrxR assay, lysate from SH-SY5Y cells and rat liver were used; endogenous in cells; host or cells: SH-SY5Y human neuroblastoma cells (10,000 x g supernatant of the homogenate)
T1 sequence (Q16881 151-649 limits assumed): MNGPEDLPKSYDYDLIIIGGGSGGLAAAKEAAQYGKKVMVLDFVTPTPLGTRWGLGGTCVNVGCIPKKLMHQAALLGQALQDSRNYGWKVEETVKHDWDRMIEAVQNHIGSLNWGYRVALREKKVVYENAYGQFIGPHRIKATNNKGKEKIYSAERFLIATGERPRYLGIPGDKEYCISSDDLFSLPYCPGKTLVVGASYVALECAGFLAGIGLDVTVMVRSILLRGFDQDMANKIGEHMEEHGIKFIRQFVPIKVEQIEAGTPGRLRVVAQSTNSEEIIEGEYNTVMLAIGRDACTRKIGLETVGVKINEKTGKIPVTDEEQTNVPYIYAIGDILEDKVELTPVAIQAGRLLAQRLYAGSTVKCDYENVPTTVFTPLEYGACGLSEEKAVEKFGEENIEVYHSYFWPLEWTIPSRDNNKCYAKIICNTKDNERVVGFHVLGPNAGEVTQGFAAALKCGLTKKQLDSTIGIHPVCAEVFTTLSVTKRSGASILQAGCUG
Procedure: (§3) For TrxR assay, lysate from SH-SY5Y cells and rat liver were used. SHSY5Y cells were washed twice with phosphate buffer solution (PBS) and harvested from the flask with a scraper. Cells were homogenised in ice-cold 50 mM potassium phosphate buffer (pH 7.4), containing 1 mM EDTA, with Ultra Turrax T25 (Ikawerk, Janke and Kunkel Inc., Staufen, Germany). The homogenates were centrifuged at 10,000 × g for 15 min at 4 °C. The protein concentrations of the supernatants were determined using a Bio-Rad protein assay kit (Bio-Rad Laboratories, USA). TrxR activity was assayed using 5,5-dithio-bis-(2-nitrobenzoic acid) (DTNB, Sigma-Aldrich, USA) as substrate[21]. The reactions were run on a 96-well plates, final volume of 100 µl in 50 mM potassium phosphate buffer (pH 7.0), containing 50 µg of the cell lysate proteins, 1-mM EDTA, 50 mM KCl, 0.2 mg/ml bovine serum albumin, 0.25 mM NADPH (Acros Organics, USA). Reaction mixture was incubated for 15 min at room temperature in plate shaker (PST-60HL-4, BioSan, Riga, Latvia); afterwards DTNB was added to the total concentration of 2.5 mM. Enzyme kinetics was monitored on a Tecan Infinite1000 microplate reader, by measuring the increase in absorbance at 412 nm for 20 min. The background TrxR-independent reduction of DTNB in the cell lysates, as determined in the presence of aurothiomalate (200 µM), was subtracted from each value[22]. Reaction mixture with rat liver lysate contained 35 µg of proteins, 1 mM EDTA, 50 mM KCl, 0.2 mg/ml bovine serum albumin, 0.25 mM NADPH, and 2.5 mM DTNB. Reactions with rat liver lysate were run in the same manner as cell lysates.

[4] = target: T2, TrxR1 (Rattus norvegicus, UniProt O89049); assay: TrxR inhibition assay (DTNB), rat liver (hepatocyte) lysate
T2 sequence (O89049 1-499): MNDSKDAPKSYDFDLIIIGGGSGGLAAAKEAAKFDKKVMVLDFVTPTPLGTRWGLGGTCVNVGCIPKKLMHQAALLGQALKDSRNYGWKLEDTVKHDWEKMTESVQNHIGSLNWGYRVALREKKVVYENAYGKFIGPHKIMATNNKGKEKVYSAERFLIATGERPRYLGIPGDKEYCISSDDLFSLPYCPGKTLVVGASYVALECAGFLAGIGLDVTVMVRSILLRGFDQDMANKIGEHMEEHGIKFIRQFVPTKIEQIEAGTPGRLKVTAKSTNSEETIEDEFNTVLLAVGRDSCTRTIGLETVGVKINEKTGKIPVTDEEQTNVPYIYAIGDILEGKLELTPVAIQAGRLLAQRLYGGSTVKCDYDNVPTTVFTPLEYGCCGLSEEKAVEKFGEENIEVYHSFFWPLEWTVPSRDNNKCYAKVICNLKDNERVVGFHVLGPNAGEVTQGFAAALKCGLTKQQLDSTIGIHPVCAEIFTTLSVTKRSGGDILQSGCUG
Procedure: as §3

[5] = system: SHSY5Y cells; assay: Cytotoxicity assay (MTT), SH-SY5Y; assay type: cell-based, human; conditions: 72 h, mean ± SEM (n = 3)
Procedure: (§1) Human neuroblastoma cells (SH-SY5Y) were grown in 1:1 mixture of Eagle's Minimum Essential Medium and F12 Medium (Sigma) supplemented with 10% foetal bovine serum (Sigma). Human keratinocytes (HaCaT) were grown in DMEM, supplemented with 10% foetal bovine serum, 2 mM L-glutamine, 5000 U/ml penicillin, and 5 mg/ml streptomycin. Human glioblastoma cell (U87-MG) were grown in Minimum Essential Media (MEM), containing 10% foetal bovine serum, 2 mM L-glutamine, 5,000 U/ml penicillin, and 5 mg/ml streptomycin. All cell lines were obtained from American Type Culture Collection (ATCC, Rockville, MD). All cell lines were grown at 37 °C in a humidified 5% CO2 atmosphere.
(§2) Cells grown in 25 cm^2 tissue flasks were trypsinized, seeded into flat-bottomed adherent 96-well cell culture plates in appropriate medium (SH-SY5Y 12,000 cells/well, U87-MG 4000 cells/well, HaCaT 2000 cells/well) and incubated overnight; afterwards the cells were exposed to different concentrations of the tested compounds for 72 h. Cell viability was measured by MTT assay. Briefly, after incubation with the compounds, medium containing 0.2 mg/ml MTT was added. After incubation (3 h, 37 °C, 5% CO2), the MTT-containing medium was removed, and 200 µl of dimethyl sulfoxide (DMSO) was immediately added to each sample. The samples were assessed at 540 nm on LKB 5060–006 Microplate Reader (Vienna, Austria) microplate reader. The half-maximal inhibitory concentration (IC50) of each compound was calculated using Graph Pad Prism® 6.0 (GraphPad Software, Inc., USA).

[6] = system: HaCaT cells; assay: Cytotoxicity assay (MTT), HaCaT; assay type: cell-based, human; conditions: 72 h, mean ± SEM (n = 3)
Procedure: as §1, §2

[7] = system: U87 cells; assay: Cytotoxicity assay (MTT), U87; assay type: cell-based, human; conditions: for CC50: U87 cells, 72 h, MTT, mean ± SEM (n = 3)
Procedure: as §1, §2

[8] = Cytotoxicity assay (MTT), SH-SY5Y; assay type: cell-based, human; conditions: human, SH-SY5Y neuroblastoma cells, SHSY5Y cells, mean ± SEM (n = 3)
Procedure: as §1, §2

[9] = Cytotoxicity assay (MTT), HaCaT; assay type: cell-based, human; conditions: human, HaCaT keratinocytes, HaCaT cells, mean ± SEM (n = 3)
Procedure: as §1, §2

[10] = Cytotoxicity assay (MTT), U87; assay type: cell-based, human; conditions: human, U87-MG glioblastoma cells; U87 cells; 72 h; MTT; mean ± SEM (n = 3)
Procedure: as §1, §2

[11] = target: T2, TrxR1
Procedure: as §3

[12] = TrxR IC50 Hepatocyte lysate, mean ± SEM (n = 3)
[13] = read-out: TrxR IC50 Hepatocyte lysate, mean ± SEM (n = 3)

For `CCC(C)SSc1ncc[nH]1` (stereo not shown) [Compound 2], the Ki [1] is listed as 31 µM.
In the case of `O=S(=O)(O)CCSSCCS(=O)(=O)O` [Compound 4, disodium 2,2′-dithio-bis-ethane sulphonate], the Km ([2]; TrxR substrate analogue, read-out: Km value) is listed as 72 µM.
For `CN1C(=O)[C@@]23C[C@]4([C@]56C[C@@]78SS[C@@](CO)(C(=O)N7[C@H]5Nc5ccccc56)N(C)C8=O)c5ccccc5N[C@@H]4N2C(=O)[C@]1(CO)SS3` [Compound 5, chaetocin], the Km ([2]; TrxR1, substrate-competitive inhibition profile, read-out: Km values) is given as 4.6 µM.
In the case of `CN1C(=O)[C@]23CC4=CC=C[C@H](O)[C@H]4N2C(=O)[C@@]1(CO)SS3` [Compound 6, gliotoxin], the Km ([2]; read-out: Km values) is listed as 16.9 µM.
In the case of `O=C(CSSCC(=O)N1CCCC1)N1CCCC1` [Compound 11a, 2,2′-Disulfanediylbis(1-(pyrrolidin-1-yl)ethan-1-one)], the IC50 [3] is reported as greater than 200 µM and the IC50 [4, 12] is reported as 170 ± 54.2 µM.
Compound `CCCNC(=O)CSSCC(=O)NCCC` [Compound 11b] has an IC50 [3] greater than 200 µM, a CC50 [5] of 220 ± 15.3 µM and a CC50 [6] of 58.4 ± 5 µM. The “times more active against U87 cell line compared to the other three compounds” value ([7]; U87, versus 11d, 11g, 12a) was 2–3 times, the CC50 [7] was 54.6 ± 3.4 µM and the IC50 [4, 13] was 26.5 ± 2.9 µM.
`O=C(CSSCC(=O)N1CCOCC1)N1CCOCC1` [Compound 11c] showed an IC50 [3] of 190 ± 78.4 µM and an IC50 [4, 13] of 182 ± 32.2 µM.
With `O=C(CSSCC(=O)NC1CC1)NC1CC1` [Compound 11d] the IC50 [3] was 63.6 ± 27.5 µM, the CC50 [5] was 202 ± 12 µM and the CC50 [6] was 69 ± 3.4 µM. The CC50 [7] was 180 ± 12.6 µM and the IC50 [4, 13] was 34.7 ± 9.1 µM.
Compound `COc1ccc(CNC(=O)CSSCC(=O)NCc2ccc(OC)cc2)cc1` [Compound 11e] has an IC50 [3] greater than 200 µM and an IC50 [4, 13] greater than 200 µM.
With `CN1CCN(C(=O)CSSCC(=O)N2CCN(C)CC2)CC1` [Compound 11f] the IC50 [3] was greater than 200 µM and the IC50 [4, 13] was greater than 200 µM.
With `CC(C)(C)NC(=O)CSSCC(=O)NC(C)(C)C` [Compound 11g] the “inhibitory activity against neuroblastoma (SHSY5Y) cell lysate (in words)” value (from here on “inhibitory activity”) [3] was “virtually no activity”, the IC50 [3] was greater than 200 µM and the CC50 [5] was 174 ± 18.3 µM. For the same compound, the CC50 [6] was 43 ± 2.9 µM, the CC50 [7] was 125 ± 15.6 µM and the IC50 [4, 13] was 22.2 ± 3.1 µM.
Work on `O=C(CSSCC(=O)Nc1ccc(F)cc1)Nc1ccc(F)cc1` [Compound 11h] yielded an IC50 [3] greater than 200 µM and an IC50 [4, 13] greater than 200 µM.
`COc1ccc(NC(=O)CSSCC(=O)Nc2ccc(OC)cc2)cc1` [Compound 11i] gave an IC50 [3] greater than 200 µM and an IC50 [4, 13] greater than 200 µM.
In the case of `NC(=O)CSSCC(N)=O` [Compound 11j], the “inhibitory activity” value [3] is reported as “virtually no activity”, the IC50 [3] is reported as greater than 200 µM and the IC50 [4, 13] is reported as 90.4 ± 18.7 µM.
`CCCNC(=O)CSSCC(=O)N1CCOCC1` [Compound 12a, 2-((2-Morpholino-2-oxoethyl)disulfanyl)-N-propylacetamide] showed an IC50 [3] of 44.4 ± 15.1 µM, a CC50 at 72 h [8] of 176 ± 13.4 µM and a CC50 at 72 h [9] of 71.8 ± 6.9 µM. It also gave a CC50 at 72 h [10] of 187 ± 15.9 µM and an IC50 [4, 12] of 45.6 ± 6.8 µM.
With `COC(=O)CSSCC(=O)Nc1ccc(F)cc1` [Compound 13a, Methyl 2-((2-((4-fluorophenyl)amino)-2-oxoethyl)disulfanyl)acetate] the IC50 [3] was 186 ± 83.8 µM and the IC50 [4, 12] was greater than 200 µM.
With `O=C(O)CSSCC(=O)O` [Compound 14, 2,2′-disulfanediyldiacetic acid, reference compound] the “inhibitory activity” value [3] was “virtually no activity”, the IC50 [3] was greater than 200 µM and the IC50 [4, 12] was greater than 200 µM.
With `O=C([O-])CSSCC(=O)[O-].[Na+].[Na+]` [Compound 15, 2,2′-disulfanediyldiacetic acid disodium salt, reference compound] the “inhibitory activity” value [3] was “completely devoid of inhibitory activity”, the IC50 [3] was greater than 200 µM and the “activity against liver cell lysate (in words)” value [11] was “completely devoid of inhibitory activity”.
In the case of `COC(=O)CSSCC(=O)OC` [Compound 17, Dimethyl 2,2′-disulfanediyldiacetate], the “inhibitory activity” value [3] is reported as “virtually no activity”, the IC50 [3] is reported as greater than 200 µM and the IC50 [4, 12] is reported as greater than 200 µM.
